According to patent publication US10238657B2, “Heterocyclic compounds for treating psoriasis” (JS INNOPHARM (SHANGHAI LTD.), priority 2015, dated 2019):

System: HaCaT cells
Experiment: Morphological examination of the effect on HaCaT cell differentiation
Format: cell-based, human
Settings: 48 h incubation, immunohistochemical staining
Procedure: HaCaT cells were cultured in DMEM culture medium containing 10% FBS under 37° C. and 5% CO2 concentration. When reaching 80% of the culture bottle area and after digestion by 0.25% trypsin, the cells were adjusted to a concentration of 4×10^4/ml and moved to a 6-well plate respectively (containing sterilized slide). Compound solutions were added. The cells were applied to the corresponding wells, and a blank control group (saline) was set. Both the sample groups and the control group were placed in a cell incubator at 37° C. Immumohistochemical staining was conducted after incubation at 48 h.
The imagine in FIG. 1A is dark brown, indicating large amount of keratin is present. […] Compound No. 5 underwent cornification (positive result).

| SMILES | Test Results, effect on HaCat cell differentiation |
| --- | --- |
| C[C@H](c1cccc(Cl)c1)N1CCn2cc(-c3c[nH]c4ncc(-c5ccccc5)cc34)cc2C1=O [Compound 2, (R)-2-(1-(3-chlorophenyl)ethyl)-7-(5-phenyl-1H-pyrrolo[2,3-b]pyridin-3-yl)-3,4-dihydropyrrolo[1,2-a]pyrazin-1(2H)-one] | Positive |
| C[C@H](c1cccc(Cl)c1)N1CCn2cc(-c3n[nH]c4ncc(-c5ccccc5)cc34)cc2C1=O [Compound 3, (R)-2-(1-(3-chlorophenyl)ethyl)-7-(5-phenyl-1H-pyrazolo[3,4-b]pyridin-3-yl)-3,4-dihydropyrrolo[1,2-a]pyrazin-1(2H)-one] | Positive |
| Cc1cnc(Nc2ccc(F)cc2Cl)nc1-c1cc2n(c1)CCN([C@H](C)c1cccc(Cl)c1)C2=O [Compound 6, (R)-7-(2-((2-chloro-4-fluorophenyl)amino)-5-methylpyrimidin-4-yl)-2-(1-(3-chlorophenyl)ethyl)-3,4-dihydropyrrolo[1,2-a]pyrazin-1(2H)-one] | Positive |
| Cc1cnc(Nc2ccc(F)cc2Cl)nc1-c1cc2n(c1)CCCN([C@H](CO)c1cccc(Cl)c1)C2=O [Compound 7, (S)-8-(2-((2-chloro-4-fluorophenyl)amino)-5-methylpyrimidin-4-yl)-2-(1-(3-chlorophenyl)-2-hydroxyethyl)-2,3,4,5-tetrahydro-1H-pyrrolo[1,2-a][1,4]diazepin-1-one] | Positive |
| Cc1cnc(Nc2ccc(F)cc2Cl)nc1-c1cc2n(c1)CCN([C@H](CO)c1ccc(Cl)cc1)C2=O [Compound 8, (S)-7-(2-((2-chloro-4-fluorophenyl)amino)-5-methylpyrimidin-4-yl)-2-(1-(4-chlorophenyl)-2-hydroxyethyl)-3,4-dihydropyrrolo[1,2-a]pyrazin-1(2H)-one] | Positive |
| Cc1cnc(Nc2ccc(F)cc2Cl)nc1-c1cc2n(c1)CCN([C@H](CO)c1cccc(F)c1)C2=O [Compound 9, (S)-7-(2-((2-chloro-4-fluorophenyl)amino)-5-methylpyrimidin-4-yl)-2-(1-(3-fluorophenyl)-2-hydroxyethyl)-3,4-dihydropyrrolo[1,2-a]pyrazin-1(2H)-one] | Positive |
| Cc1cnc(Nc2ccc(F)cc2Cl)nc1-c1cc2n(c1)CCN([C@H](CO)c1ccc(F)cc1)C2=O [Compound 10, (S)-7-(2-((2-chloro-4-fluorophenyl)amino)-5-methylpyrimidin-4-yl)-2-(1-(4-fluorophenyl)-2-hydroxyethyl)-3,4-dihydropyrrolo[1,2-a]pyrazin-1(2H)-one] | Positive |
| Cc1cnc(Nc2ccc(N3CCNCC3)cc2Cl)nc1-c1cc2n(c1)CCN([C@H](CO)c1cccc(Cl)c1)C2=O [Compound 11, (S)-7-(2-((2-chloro-4-(piperazin-1-yl)phenyl)amino)-5-methylpyrimidin-4-yl)-2-(1-(3-chlorophenyl)-2-hydroxyethyl)-3,4-dihydropyrrolo[1,2-a]pyrazin-1(2H)-one] | Positive |
| Cc1cnc(Nc2ccc(C3CCNCC3)cc2Cl)nc1-c1cc2n(c1)CCN([C@H](CO)c1cccc(Cl)c1)C2=O [Compound 12, (S)-7-(2-((2-chloro-4-(piperidin-4-yl)phenyl)amino)-5-methylpyrimidin-4-yl)-2-(1-(3-chlorophenyl)-2-hydroxyethyl)-3,4-dihydropyrrolo[1,2-a]pyrazin-1(2H)-one] | Positive |
| Cc1cnc(Nc2ccc(C3CCN(C(C)C)CC3)cc2Cl)nc1-c1cc2n(c1)CCN([C@H](CO)c1cccc(Cl)c1)C2=O [Compound 13, (S)-7-(2-((2-chloro-4-(1-isopropylpiperidin-4-yl)phenyl)amino)-5-methylpyrimidin-4-yl)-2-(1-(3-chlorophenyl)-2-hydroxyethyl)-3,4-dihydropyrrolo[1,2-a]pyrazin-1(2H)-one] | Positive |
| Cc1cnc(Nc2ccc(N3CCN(S(C)(=O)=O)CC3)cc2Cl)nc1-c1cc2n(c1)CCN([C@H](CO)c1cccc(Cl)c1)C2=O [Compound 16, (S)-7-(2-((2-chloro-4-(4-(methylsulfonyl)piperazin-1-yl)phenyl)amino)-5-methylpyrimidin-4-yl)-2-(1-(3-chlorophenyl)-2-hydroxyethyl)-3,4-dihydropyrrolo[1,2-a]pyrazin-1(2H)-one] | Positive |
| Cc1cnc(Nc2ccc(F)cc2)nc1-c1cc2n(c1)CCN([C@H](CO)c1cccc(Cl)c1)C2=O [Compound 17, (S)-2-(1-(3-chlorophenyl)-2-hydroxyethyl)-7-(2-((4-fluorophenyl)amino)-5-methylpyrimidin-4-yl)-3,4-dihydropyrrolo[1,2-a]pyrazin-1(2H)-one] | Positive |
| Cc1cnc(NC2CCOCC2)nc1-c1cc2n(c1)CCN(C(c1ccc(Cl)c(F)c1)c1cnn(C)c1)C2=O (stereo not shown) [Compound 19, 2-((4-chloro-3-fluorophenyl)(1-methyl-1H-pyrazol-4-yl)methyl)-7-(5-methyl-2-((tetrahydro-2H-pyran-4-yl)amino)pyrimidin-4-yl)-3,4-dihydropyrrolo[1,2-a]pyrazin-1(2H)-one] | Positive |
| Cc1cnc(NC2CCCCC2)nc1-c1cc2n(c1)CCN([C@H](CO)c1cccc(Cl)c1)C2=O [Compound 20, (S)-2-(1-(3-chlorophenyl)-2-hydroxyethyl)-7-(2-(cyclohexylamino)-5-methylpyrimidin-4-yl)-3,4-dihydropyrrolo[1,2-a]pyrazin-1(2H)-one] | Positive |

System: chick chorioallantoic membrane
Experiment: Chick chorioallantoic membrane (CAM) angiogenesis model
Format: in vivo, chicken
Settings: 4.0 μg/egg, 48 h, n = 3
Procedure: Fresh eggs were incubated for 6 successive days under 37° C. and 50% humidity. On the 6th day, live eggs were identified and taken out for window-opening. First, the chorioallantoic membrane was located with illumination. Droplets of Compound No. […] After air dry, the filter paper was placed on the chorioallantoic membrane gently without contacting big vessels. The window was sealed with a transparent adhesive tape. The eggs were incubated for 48 hours continuously. The transparent adhesive tape was then uncovered. The window was enlarged and photos were taken under a dissecting microscope (FIGS. 2 A-B). New vessels were counted based on the number of blood vessel branch points in each photo. Inhibitory rate=100−[(number of new blood vessels in treatment group at 24 h)/(number of new blood vessels in treatment group at 0 h)]/[(number of blood vessels in negative control group at 24 h)/(number of blood vessels in negative control group at 0 h)]×100%.

| SMILES | Number of new blood vessels 48 h |
| --- | --- |
| CNC(=O)c1cc(Oc2ccc(NC(=O)Nc3ccc(Cl)c(C(F)(F)F)c3)cc2)ccn1 [Sorafeni, Sorafenib, reference compound] | 18.17 ± 7.60 |

Same assay, conditions: 4.0 μg/egg, 48 h, versus PBS group

| SMILES | Inhibitory rate (%) |
| --- | --- |
| CNC(=O)c1cc(Oc2ccc(NC(=O)Nc3ccc(Cl)c(C(F)(F)F)c3)cc2)ccn1 [Sorafeni, Sorafenib, reference compound] | 77.27% |
